# System: S. aureus ATCC 6538
# Assay: not given
# Conditions: LYM broth, 0 mM NaCl; 16 h, 37 °C
# Method in brief: (§1)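 MICs came from CLSI broth microdilution, with 5 × 10^5 CFU/mL bacteria exposed to peptide at final 0.78–50 µg/mL. Media were MH broth or LYM broth (pH 7.4), the latter also adjusted for salt (NaCl 50–300 mM, MgCl2 0.5–2.5 mM) or acidity (pH 4.5–6.5); triplicate independent experiments.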
row,Substance,MIC [µg/mL]
1,Ac-WLAKKKKWRKWLK-NH2 [Peptide W5K08],12.5
2,Ac-LAKKKKWRKWLKW-NH2 [Peptide W5K09],6.25

# Same assay, conditions: LYM broth, 0.5 mM MgCl2
row,Substance,MIC [µg/mL]
1,Ac-WLAKKKKWRKWLK-NH2 [Peptide W5K08],3.13
2,Ac-LAKKKKWRKWLKW-NH2 [Peptide W5K09],3.13

# Same assay, conditions: LYM broth, 1.5 mM MgCl2
row,Substance,MIC [µg/mL]
1,Ac-WLAKKKKWRKWLK-NH2 [Peptide W5K08],6.25
2,Ac-LAKKKKWRKWLKW-NH2 [Peptide W5K09],3.13

# Same assay, conditions: LYM broth, 2.5 mM MgCl2
row,Substance,MIC [µg/mL]
1,Ac-WLAKKKKWRKWLK-NH2 [Peptide W5K08],6.25
2,Ac-LAKKKKWRKWLKW-NH2 [Peptide W5K09],3.13

# Same assay, conditions: LYM broth, 50 mM NaCl; 16 h, 37 °C
row,Substance,MIC [µg/mL]
1,Ac-WLAKKKKWRKWLK-NH2 [Peptide W5K08],25
2,Ac-LAKKKKWRKWLKW-NH2 [Peptide W5K09],6.25

# Same assay, conditions: LYM broth, 100 mM NaCl; 16 h, 37 °C
row,Substance,MIC [µg/mL]
1,Ac-WLAKKKKWRKWLK-NH2 [Peptide W5K08],50
2,Ac-LAKKKKWRKWLKW-NH2 [Peptide W5K09],12.5

# Same assay, conditions: LYM broth, 200 mM (NaCl); 16 h, 37 °C
row,Substance,MIC [µg/mL]
1,Ac-WLAKKKKWRKWLK-NH2 [Peptide W5K08],50
2,Ac-LAKKKKWRKWLKW-NH2 [Peptide W5K09],12.5

# Same assay, conditions: LYM broth, 300 mM (NaCl); 16 h, 37 °C
row,Substance,MIC [µg/mL]
1,Ac-WLAKKKKWRKWLK-NH2 [Peptide W5K08],>50
2,Ac-LAKKKKWRKWLKW-NH2 [Peptide W5K09],50

# Same assay, conditions: LYM broth, pH 4.5
row,Substance,MIC [µg/mL]
1,Ac-WLAKKKKWRKWLK-NH2 [Peptide W5K08],12.5
2,Ac-LAKKKKWRKWLKW-NH2 [Peptide W5K09],6.25

# Same assay, conditions: LYM broth, pH 5.5
row,Substance,MIC [µg/mL]
1,Ac-WLAKKKKWRKWLK-NH2 [Peptide W5K08],6.25
2,Ac-LAKKKKWRKWLKW-NH2 [Peptide W5K09],3.13

# Same assay, conditions: LYM broth, pH 6.5
row,Substance,MIC [µg/mL]
1,Ac-WLAKKKKWRKWLK-NH2 [Peptide W5K08],6.25
2,Ac-LAKKKKWRKWLKW-NH2 [Peptide W5K09],3.13

# Same assay, conditions: MH broth; 5 × 10^5 CFU/mL, 16 h, 37 °C; repeated three times
row,Substance,MIC [µg/mL]
1,Ac-WLAKKKKWRKWLK-NH2 [Peptide W5K08],>50
2,Ac-LAKKKKWRKWLKW-NH2 [Peptide W5K09],>50

# System: Pseudomonas aeruginosa Migula (ATCC 27853)
# Assay: not given
# Conditions: LYM broth, 0 mM NaCl; 16 h, 37 °C
# Method in brief: as §1
row,Substance,MIC [µg/mL]
1,Ac-WLAKKKKWRKWLK-NH2 [Peptide W5K08],3.13
2,Ac-LAKKKKWRKWLKW-NH2 [Peptide W5K09],3.13

# Same assay, conditions: LYM broth, 0.5 mM MgCl2
row,Substance,MIC [µg/mL]
1,Ac-WLAKKKKWRKWLK-NH2 [Peptide W5K08],3.13
2,Ac-LAKKKKWRKWLKW-NH2 [Peptide W5K09],6.25

# Same assay, conditions: LYM broth, 1.5 mM MgCl2
row,Substance,MIC [µg/mL]
1,Ac-WLAKKKKWRKWLK-NH2 [Peptide W5K08],6.25
2,Ac-LAKKKKWRKWLKW-NH2 [Peptide W5K09],6.25

# Same assay, conditions: LYM broth, 2.5 mM MgCl2
row,Substance,MIC [µg/mL]
1,Ac-WLAKKKKWRKWLK-NH2 [Peptide W5K08],12.5
2,Ac-LAKKKKWRKWLKW-NH2 [Peptide W5K09],12.5

# Same assay, conditions: LYM broth, 50 mM NaCl; 16 h, 37 °C
row,Substance,MIC [µg/mL]
1,Ac-WLAKKKKWRKWLK-NH2 [Peptide W5K08],6.25
2,Ac-LAKKKKWRKWLKW-NH2 [Peptide W5K09],6.25

# Same assay, conditions: LYM broth, 100 mM NaCl; 16 h, 37 °C
row,Substance,MIC [µg/mL]
1,Ac-WLAKKKKWRKWLK-NH2 [Peptide W5K08],25
2,Ac-LAKKKKWRKWLKW-NH2 [Peptide W5K09],12.5

# Same assay, conditions: LYM broth, 200 mM (NaCl); 16 h, 37 °C
row,Substance,MIC [µg/mL]
1,Ac-WLAKKKKWRKWLK-NH2 [Peptide W5K08],50
2,Ac-LAKKKKWRKWLKW-NH2 [Peptide W5K09],50

# Same assay, conditions: LYM broth, 300 mM (NaCl); 16 h, 37 °C
row,Substance,MIC [µg/mL]
1,Ac-WLAKKKKWRKWLK-NH2 [Peptide W5K08],>50
2,Ac-LAKKKKWRKWLKW-NH2 [Peptide W5K09],>50

# Same assay, conditions: LYM broth, pH 4.5
row,Substance,MIC [µg/mL]
1,Ac-WLAKKKKWRKWLK-NH2 [Peptide W5K08],6.25
2,Ac-LAKKKKWRKWLKW-NH2 [Peptide W5K09],6.25

# Same assay, conditions: LYM broth, pH 5.5
row,Substance,MIC [µg/mL]
1,Ac-WLAKKKKWRKWLK-NH2 [Peptide W5K08],3.13
2,Ac-LAKKKKWRKWLKW-NH2 [Peptide W5K09],3.13

# Same assay, conditions: LYM broth, pH 6.5
row,Substance,MIC [µg/mL]
1,Ac-WLAKKKKWRKWLK-NH2 [Peptide W5K08],3.13
2,Ac-LAKKKKWRKWLKW-NH2 [Peptide W5K09],3.13

# Same assay, conditions: MH broth; 5 × 10^5 CFU/mL, 16 h, 37 °C; repeated three times
row,Substance,MIC [µg/mL]
1,Ac-WLAKKKKWRKWLK-NH2 [Peptide W5K08],25
2,Ac-LAKKKKWRKWLKW-NH2 [Peptide W5K09],25

# System: A. baumannii 14B00100 (Acinetobacter sp., BCRC number 14B0100)
# Assay: not given
# Conditions: LYM broth, 0 mM NaCl; 16 h, 37 °C
# Method in brief: as §1
row,Substance,MIC [µg/mL]
1,Ac-WLAKKKKWRKWLK-NH2 [Peptide W5K08],3.13
2,Ac-LAKKKKWRKWLKW-NH2 [Peptide W5K09],3.13

# Same assay, conditions: LYM broth, 0.5 mM MgCl2
row,Substance,MIC [µg/mL]
1,Ac-WLAKKKKWRKWLK-NH2 [Peptide W5K08],3.13
2,Ac-LAKKKKWRKWLKW-NH2 [Peptide W5K09],3.13

# Same assay, conditions: LYM broth, 1.5 mM MgCl2
row,Substance,MIC [µg/mL]
1,Ac-WLAKKKKWRKWLK-NH2 [Peptide W5K08],3.13
2,Ac-LAKKKKWRKWLKW-NH2 [Peptide W5K09],3.13

# Same assay, conditions: LYM broth, 2.5 mM MgCl2
row,Substance,MIC [µg/mL]
1,Ac-WLAKKKKWRKWLK-NH2 [Peptide W5K08],6.25
2,Ac-LAKKKKWRKWLKW-NH2 [Peptide W5K09],3.13

# Same assay, conditions: LYM broth, 50 mM NaCl; 16 h, 37 °C
row,Substance,MIC [µg/mL]
1,Ac-WLAKKKKWRKWLK-NH2 [Peptide W5K08],6.25
2,Ac-LAKKKKWRKWLKW-NH2 [Peptide W5K09],3.13

# Same assay, conditions: LYM broth, 100 mM NaCl; 16 h, 37 °C
row,Substance,MIC [µg/mL]
1,Ac-WLAKKKKWRKWLK-NH2 [Peptide W5K08],25
2,Ac-LAKKKKWRKWLKW-NH2 [Peptide W5K09],6.25

# Same assay, conditions: LYM broth, 200 mM (NaCl); 16 h, 37 °C
row,Substance,MIC [µg/mL]
1,Ac-WLAKKKKWRKWLK-NH2 [Peptide W5K08],>50
2,Ac-LAKKKKWRKWLKW-NH2 [Peptide W5K09],25

# Same assay, conditions: LYM broth, 300 mM (NaCl); 16 h, 37 °C
row,Substance,MIC [µg/mL]
1,Ac-WLAKKKKWRKWLK-NH2 [Peptide W5K08],>50
2,Ac-LAKKKKWRKWLKW-NH2 [Peptide W5K09],>50

# Same assay, conditions: LYM broth, pH 4.5
row,Substance,MIC [µg/mL]
1,Ac-WLAKKKKWRKWLK-NH2 [Peptide W5K08],3.13
2,Ac-LAKKKKWRKWLKW-NH2 [Peptide W5K09],3.13

# Same assay, conditions: LYM broth, pH 5.5
row,Substance,MIC [µg/mL]
1,Ac-WLAKKKKWRKWLK-NH2 [Peptide W5K08],3.13
2,Ac-LAKKKKWRKWLKW-NH2 [Peptide W5K09],1.56

# Same assay, conditions: LYM broth, pH 6.5
row,Substance,MIC [µg/mL]
1,Ac-WLAKKKKWRKWLK-NH2 [Peptide W5K08],3.13
2,Ac-LAKKKKWRKWLKW-NH2 [Peptide W5K09],1.56

# Same assay, conditions: MH broth; 5 × 10^5 CFU/mL, 16 h, 37 °C; repeated three times
row,Substance,MIC [µg/mL]
1,Ac-WLAKKKKWRKWLK-NH2 [Peptide W5K08],>50
2,Ac-LAKKKKWRKWLKW-NH2 [Peptide W5K09],50

# System: S. aureus ATCC 33592
# Assay: not given
# Conditions: LYM broth, 0 mM NaCl; 16 h, 37 °C
# Method in brief: as §1
row,Substance,MIC [µg/mL]
1,Ac-WLAKKKKWRKWLK-NH2 [Peptide W5K08],25
2,Ac-LAKKKKWRKWLKW-NH2 [Peptide W5K09],25

# Same assay, conditions: LYM broth, 0.5 mM MgCl2
row,Substance,MIC [µg/mL]
1,Ac-WLAKKKKWRKWLK-NH2 [Peptide W5K08],25
2,Ac-LAKKKKWRKWLKW-NH2 [Peptide W5K09],25

# Same assay, conditions: LYM broth, 1.5 mM MgCl2
row,Substance,MIC [µg/mL]
1,Ac-WLAKKKKWRKWLK-NH2 [Peptide W5K08],25
2,Ac-LAKKKKWRKWLKW-NH2 [Peptide W5K09],25

# Same assay, conditions: LYM broth, 2.5 mM MgCl2
row,Substance,MIC [µg/mL]
1,Ac-WLAKKKKWRKWLK-NH2 [Peptide W5K08],50
2,Ac-LAKKKKWRKWLKW-NH2 [Peptide W5K09],50

# Same assay, conditions: LYM broth, 50 mM NaCl; 16 h, 37 °C
row,Substance,MIC [µg/mL]
1,Ac-WLAKKKKWRKWLK-NH2 [Peptide W5K08],50
2,Ac-LAKKKKWRKWLKW-NH2 [Peptide W5K09],25

# Same assay, conditions: LYM broth, 100 mM NaCl; 16 h, 37 °C
row,Substance,MIC [µg/mL]
1,Ac-WLAKKKKWRKWLK-NH2 [Peptide W5K08],50
2,Ac-LAKKKKWRKWLKW-NH2 [Peptide W5K09],50

# Same assay, conditions: LYM broth, 200 mM (NaCl); 16 h, 37 °C
row,Substance,MIC [µg/mL]
1,Ac-WLAKKKKWRKWLK-NH2 [Peptide W5K08],>50
2,Ac-LAKKKKWRKWLKW-NH2 [Peptide W5K09],50

# Same assay, conditions: LYM broth, 300 mM (NaCl); 16 h, 37 °C
row,Substance,MIC [µg/mL]
1,Ac-WLAKKKKWRKWLK-NH2 [Peptide W5K08],>50
2,Ac-LAKKKKWRKWLKW-NH2 [Peptide W5K09],>50

# Same assay, conditions: LYM broth, pH 4.5
row,Substance,MIC [µg/mL]
1,Ac-WLAKKKKWRKWLK-NH2 [Peptide W5K08],25
2,Ac-LAKKKKWRKWLKW-NH2 [Peptide W5K09],25

# Same assay, conditions: LYM broth, pH 5.5
row,Substance,MIC [µg/mL]
1,Ac-WLAKKKKWRKWLK-NH2 [Peptide W5K08],25
2,Ac-LAKKKKWRKWLKW-NH2 [Peptide W5K09],12.5

# Same assay, conditions: LYM broth, pH 6.5
row,Substance,MIC [µg/mL]
1,Ac-WLAKKKKWRKWLK-NH2 [Peptide W5K08],12.5
2,Ac-LAKKKKWRKWLKW-NH2 [Peptide W5K09],12.5

# Same assay, conditions: MH broth; 5 × 10^5 CFU/mL, 16 h, 37 °C; repeated three times
row,Substance,MIC [µg/mL]
1,Ac-WLAKKKKWRKWLK-NH2 [Peptide W5K08],>50
2,Ac-LAKKKKWRKWLKW-NH2 [Peptide W5K09],>50

# System: Gram-negative bacteria
# Assay: Geometric mean MIC and therapeutic index, Gram-negative bacteria
# Format: cell-based
# Conditions: Gram-negative bacteria, MH broth; MIC >50 µg/mL counted as 100 µg/mL
# Method in brief: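 Overnight MH cultures were regrown and diluted to 5 × 10^5 CFU/mL, then exposed to peptides at 0.78–50 µg/mL final in MH or modified LYM broth following CLSI microdilution. MICs were combined into geometric means, and TI was computed as HC10 (human red blood cells) divided by GM.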
row,Substance,GM G− (geometric mean of the MIC values) [µg/mL]
1,Ac-WLAKKKKWRKWLK-NH2 [Peptide W5K08],50.0
2,Ac-LAKKKKWRKWLKW-NH2 [Peptide W5K09],33.0

# Same assay, conditions: HC10/GM, Gram-negative bacteria
row,Substance,Therapeutic Index (TI) G−
1,Ac-WLAKKKKWRKWLK-NH2 [Peptide W5K08],2.2
2,Ac-LAKKKKWRKWLKW-NH2 [Peptide W5K09],3.3
